Where “and” joins values, the source holds several entries; their conditions need not be identical. Equal values may be shown once. Inconclusive results and toxic doses are left out.
Tested on: CD2F1 mice, L1210 leukemia ip, survival T/C
Assay: NCI In Vivo Anticancer Drug Screen. Data for tumor model L1210 Leukemia (intraperitoneal) in CD2F1 (CDF1) mice
Details: higher = longer survival
How it was run: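 Transplantable tumor in mice; compound-treated vs vehicle-treated groups. Read-out = treated/control ratio of the measured endpoint.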

CN(Cc1cnc2nc(N)nc(N)c2n1)c1ccc(C(=O)N[C@@H](CCC(=O)O)C(=O)O)cc1
T/C (endpoint: mean survival time, dose: 0.13 mg/kg/injection, schedule: Q01DX009 (ip), vehicle: saline): 119 % of control | T/C (endpoint: mean survival time, dose: 0.19 mg/kg/injection, schedule: Q01DX009 (ip), vehicle: alkali diluted with saline): 115 % of control | T/C (endpoint: mean survival time, dose: 0.25 mg/kg/injection, schedule: Q01DX009 (ip), vehicle: sodium bicarbonate): 115 % of control | T/C (endpoint: mean survival time, dose: 0.25 mg/kg/injection, schedule: Q03HX008 (ip), vehicle: saline): 122 % of control | T/C (endpoint: mean survival time, dose: 0.38 mg/kg/injection, schedule: Q01DX009 (ip), vehicle: alkali diluted with saline): 120 % of control | T/C (endpoint: mean survival time, dose: 0.38 mg/kg/injection, schedule: Q01DX009 (ip), vehicle: other): 154 % of control | T/C (endpoint: mean survival time, dose: 0.44 mg/kg/injection, schedule: Q01DX009 (ip), vehicle: sodium bicarbonate): 156 % of control | T/C (endpoint: mean survival time, dose: 0.47 mg/kg/injection, schedule: Q01DX009 (ip), vehicle: sodium bicarbonate): 160 % of control | T/C (endpoint: mean survival time, dose: 0.5 mg/kg/injection, schedule: Q01DX005 (ip), vehicle: sodium bicarbonate): 115 % of control and 122 % of control | T/C (endpoint: mean survival time, dose: 0.5 mg/kg/injection, schedule: Q01DX007 (ip), vehicle: other): 117 % of control | T/C (endpoint: mean survival time, dose: 0.5 mg/kg/injection, schedule: Q01DX009 (ip), vehicle: saline): 159 % of control | T/C (endpoint: mean survival time, dose: 0.75 mg/kg/injection, schedule: Q01DX009 (ip), vehicle: alkali diluted with saline): 152 % of control and 163 % of control | T/C (endpoint: mean survival time, dose: 0.75 mg/kg/injection, schedule: Q01DX009 (ip), vehicle: other): 154 % of control | T/C (endpoint: mean survival time, dose: 0.78 mg/kg/injection, schedule: Q01DX009 (ip), vehicle: sodium bicarbonate): 166 % of control | T/C (endpoint: mean survival time, dose: 1.0 mg/kg/injection, schedule: Q01DX005 (ip), vehicle: sodium bicarbonate): 113 % of control | T/C (endpoint: mean survival time, dose: 1.0 mg/kg/injection, schedule: Q01DX009 (ip), vehicle: saline): 171 % of control and 183 % of control | T/C (endpoint: mean survival time, dose: 1.3 mg/kg/injection, schedule: Q01DX009 (ip), vehicle: sodium bicarbonate): 181 % of control | T/C (endpoint: mean survival time, dose: 1.5 mg/kg/injection, schedule: Q01DX009 (ip), vehicle: alkali diluted with saline): 177 % of control and 178 % of control | T/C (endpoint: mean survival time, dose: 1.5 mg/kg/injection, schedule: Q01DX009 (ip), vehicle: other): 150 % of control and 164 % of control | T/C (endpoint: mean survival time, dose: 2.0 mg/kg/injection, schedule: Q01DX007 (ip), vehicle: other): 164 % of control | T/C (endpoint: mean survival time, dose: 2.0 mg/kg/injection, schedule: Q01DX009 (ip), vehicle: saline): 161 % of control | T/C (endpoint: mean survival time, dose: 2.0 mg/kg/injection, schedule: Q02DX005 (ip), vehicle: sodium bicarbonate): 170 % of control | T/C (endpoint: mean survival time, dose: 2.0 mg/kg/injection, schedule: Q03DX003 (ip), vehicle: sodium bicarbonate): 158 % of control | T/C (endpoint: mean survival time, dose: 2.0 mg/kg/injection, schedule: Q04DX003 (ip), vehicle: sodium bicarbonate): 160 % of control | T/C (endpoint: mean survival time, dose: 2.16 mg/kg/injection, schedule: Q01DX009 (ip), vehicle: sodium bicarbonate): 179 % of control | T/C (endpoint: mean survival time, dose: 2.3 mg/kg/injection, schedule: Q01DX009 (ip), vehicle: sodium bicarbonate): 164 % of control | T/C (endpoint: mean survival time, dose: 2.3 mg/kg/injection, schedule: Q04DX003 (ip), vehicle: saline): 114 % of control | T/C (endpoint: mean survival time, dose: 2.5 mg/kg/injection, schedule: Q04DX003 (ip), vehicle: sodium bicarbonate): 116 % of control | T/C (endpoint: mean survival time, dose: 4.0 mg/kg/injection, schedule: Q01DX005 (ip), vehicle: sodium bicarbonate): 160 % of control | T/C (endpoint: mean survival time, dose: 4.0 mg/kg/injection, schedule: Q04DX003 (ip), vehicle: saline): 166 % of control | T/C (endpoint: mean survival time, dose: 4.0 mg/kg/injection, schedule: Q04DX003 (ip), vehicle: sodium bicarbonate): 169 % of control | T/C (endpoint: mean survival time, dose: 4.6 mg/kg/injection, schedule: Q04DX003 (ip), vehicle: saline): 164 % of control | T/C (endpoint: mean survival time, dose: 5.0 mg/kg/injection, schedule: Q04DX003 (ip), vehicle: alkali diluted with saline): 156 % of control | T/C (endpoint: mean survival time, dose: 5.0 mg/kg/injection, schedule: Q04DX003 (ip), vehicle: sodium bicarbonate): 159 % of control | T/C (endpoint: mean survival time, dose: 5.4 mg/kg/injection, schedule: Q04DX003 (ip), vehicle: sodium bicarbonate): 165 % of control | T/C (endpoint: mean survival time, dose: 8.0 mg/kg/injection, schedule: Q01DX001 (ip), vehicle: saline): 116 % of control | T/C (endpoint: mean survival time, dose: 8.0 mg/kg/injection, schedule: Q03DX003 (ip), vehicle: sodium bicarbonate): 181 % of control | T/C (endpoint: mean survival time, dose: 9.0 mg/kg/injection, schedule: Q04DX003 (ip), vehicle: sodium bicarbonate): 176 % of control | T/C (endpoint: mean survival time, dose: 9.2 mg/kg/injection, schedule: Q04DX003 (ip), vehicle: saline): 175 % of control | T/C (endpoint: mean survival time, dose: 10.0 mg/kg/injection, schedule: Q01DX005 (ip), vehicle: sodium bicarbonate): 164 % of control | T/C (endpoint: mean survival time, dose: 10.0 mg/kg/injection, schedule: Q04DX003 (ip), vehicle: alkali diluted with saline): 154 % of control and 164 % of control | T/C (endpoint: mean survival time, dose: 10.0 mg/kg/injection, schedule: Q04DX004 (ip), vehicle: sodium bicarbonate): 165 % of control and 183 % of control | T/C (endpoint: mean survival time, dose: 15.0 mg/kg/injection, schedule: Q04DX004 (ip), vehicle: sodium bicarbonate): 168 % of control and 170 % of control | T/C (endpoint: mean survival time, dose: 16.0 mg/kg/injection, schedule: Q04DX003 (ip), vehicle: saline): 150 % of control | T/C (endpoint: mean survival time, dose: 25.0 mg/kg/injection, schedule: Q04DX003 (ip), vehicle: sodium bicarbonate): 174 % of control | T/C (endpoint: mean survival time, dose: 25.0 mg/kg/injection, schedule: Q04DX004 (ip), vehicle: sodium bicarbonate): 175 % of control | T/C (endpoint: mean survival time, dose: 32.0 mg/kg/injection, schedule: Q04DX003 (ip), vehicle: saline): 174 % of control | T/C (endpoint: mean survival time, dose: 35.0 mg/kg/injection, schedule: Q04DX003 (ip), vehicle: sodium bicarbonate): 175 % of control | T/C (endpoint: mean survival time, dose: 36.8 mg/kg/injection, schedule: Q04DX003 (ip), vehicle: saline): 159 % of control | T/C (endpoint: mean survival time, dose: 41.7 mg/kg/injection, schedule: Q04DX003 (ip), vehicle: sodium bicarbonate): 116 % of control | T/C (endpoint: mean survival time, dose: 64.0 mg/kg/injection, schedule: Q04DX003 (ip), vehicle: saline): 120 % of control | T/C (endpoint: mean survival time, dose: 73.5 mg/kg/injection, schedule: Q04DX003 (ip), vehicle: saline): 124 % of control | T/C (endpoint: mean survival time, dose: 128.0 mg/kg/injection, schedule: Q04DX003 (ip), vehicle: saline): 120 % of control | T/C (endpoint: median survival time, dose: 0.5 mg/kg/injection, schedule: Q01DX005 (ip), vehicle: sodium bicarbonate): 113 % of control | T/C (endpoint: median survival time, dose: 0.52 mg/kg/injection, schedule: Q01DX009 (ip), vehicle: sodium bicarbonate): 152 % of control | T/C (endpoint: median survival time, dose: 0.6 mg/kg/injection, schedule: Q06HX024 (ip), vehicle: saline): 116 % of control | T/C (endpoint: median survival time, dose: 0.86 mg/kg/injection, schedule: Q01DX009 (ip), vehicle: sodium bicarbonate): 165 % of control | T/C (endpoint: median survival time, dose: 1.0 mg/kg/injection, schedule: Q01DX005 (ip), vehicle: sodium bicarbonate): 124 % of control | T/C (endpoint: median survival time, dose: 1.25 mg/kg/injection, schedule: Q01DX009 (ip), vehicle: sodium bicarbonate): 173 % of control and 178 % of control | T/C (endpoint: median survival time, dose: 1.56 mg/kg/injection, schedule: Q01DX009 (ip), vehicle: sodium bicarbonate): 171 % of control | T/C (endpoint: median survival time, dose: 2.5 mg/kg/injection, schedule: Q01DX009 (ip), vehicle: sodium bicarbonate): 182 % of control | T/C (endpoint: median survival time, dose: 3.0 mg/kg/injection, schedule: Q01DX005 (ip), vehicle: sodium bicarbonate): 160 % of control and 175 % of control | T/C (endpoint: median survival time, dose: 3.0 mg/kg/injection, schedule: Q01DX009 (ip), vehicle: sodium bicarbonate): 156 % of control | T/C (endpoint: median survival time, dose: 4.0 mg/kg/injection, schedule: Q01DX005 (ip), vehicle: sodium bicarbonate): 168 % of control and 181 % of control | T/C (endpoint: median survival time, dose: 4.5 mg/kg/injection, schedule: Q01DX005 (ip), vehicle: sodium bicarbonate): 169 % of control (2×) and 183 % of control | T/C (endpoint: median survival time, dose: 5.4 mg/kg/injection, schedule: Q04DX003 (ip), vehicle: sodium bicarbonate): 163 % of control and 168 % of control | T/C (endpoint: median survival time, dose: 6.0 mg/kg/injection, schedule: Q01DX005 (ip), vehicle: sodium bicarbonate): 171 % of control and 179 % of control | T/C (endpoint: median survival time, dose: 9.0 mg/kg/injection, schedule: Q04DX003 (ip), vehicle: sodium bicarbonate): 175 % of control | T/C (endpoint: median survival time, dose: 12.5 mg/kg/injection, schedule: Q01DX001 (ip), vehicle: sodium bicarbonate): 116 % of control | T/C (endpoint: median survival time, dose: 15.0 mg/kg/injection, schedule: Q04DX003 (ip), vehicle: sodium bicarbonate): 175 % of control | T/C (endpoint: median survival time, dose: 25.0 mg/kg/injection, schedule: Q04DX003 (ip), vehicle: sodium bicarbonate): 173 % of control | T/C (endpoint: median survival time, dose: 72.0 mg/kg/injection, schedule: Q01DX001 (ip), vehicle: sodium bicarbonate): 113 % of control and 122 % of control | T/C (endpoint: median survival time, dose: 400.0 mg/kg/injection, schedule: Q01DX001 (ip), vehicle: sodium bicarbonate): 177 % of control

From PubChem BioAssay AID256 (DTP/NCI, 2004)
